Source: patent US8524674B2, “Method of improving the conditioned reflex habit, the muscle tonus, or the motion coordination of a patient after suffering trauma to the brain cortex” (Obschestvo S Ogranichennoi Otvetstvennostyu “Sia Peptides”, priority 2006, dated 2013)
Several values for one entry are separate records, joined by “and”; a condition that tells them apart may be missing. Equal values may be shown once. Residues, ends and D or L forms follow the SMILES beside them.

Assays:
[1] = tested on: rats with spinal cord trauma; experiment: Morphologic alterations in the central nervous system in spinal cord trauma; type: in vivo, Wistar rats
Protocol: The study was performed on mature Wistar rats of both sexes with body weight of 180-200 g. The experimental group of 27 rats was subjected to spinal cord trauma.
The animals were injured in the lumbar segment of the spinal cord according to the following method. The lateral surfaces of anesthetized rats' vertebrae on the level of the last rib were compressed through the skin using dressing forceps with a force of 15 kg on the working surfaces. In 24 hours after the trauma the surviving animals were subdivided into 2 groups.
The rats of the second group (control) received sterile physiological saline solution in the same volume.
Neurohistological studies were performed in the animals of both groups on the 30th day of the experiment. For this purpose spinal cord ganglia were taken from the spots of injury and above the injured spots, as well as lumbar and cervical segments of the spinal cord and motor cortex fragments and pyramid tracts of the brain. Neurohistological studies were performed using electronic and luminous microscopy.
The samples intended for luminous microscopy were fixed in 96% spirit and 10% formalin, then packed into celloidin with subsequent staining with hematoxylin-eosine, as well as staining by Nissle, Van Gison, Weigert, Spielmeyer. The samples were fixed and cut in accordance with conventional methods of histological processing and staining of the samples.
The samples intended for electronic microscopy were fixed by 2% osmic acid with cacodylate buffer, then packed in Epon 812 and contrasted in lead […] by Reynolds. The preliminary evaluation of the samples was performed using semifine sections. Ultrafine sections were studied using electronic microscope UEM-100SKh.

[2] = tested on: patients with remote consequences of cranial trauma; experiment: Efficacy in patients with consequences of cranial trauma (clinical result, corrective test, EEG alpha index); type: in vivo; settings: patients of the main groups after treatment
Protocol: This study was performed on 25 patients aged 31-60 with remote consequences of cranial trauma, who were randomly subdivided into 2 groups. These patients sustained cranial traumas from 1 to 10 years ago. Main group patients were subdivided into 3 groups depending on the severity of their cranial trauma. Patients with the most severe consequences of cranial trauma received the pharmaceutical composition containing peptide H-Glu-Asp-Arg-OH once a day, intramuscularly, in the dose of 5.0 mg in 1 ml of sterile 0.9% NaCl solution for 10 days. Main group patients with cranial trauma consequences of intermediate severity were treated with the pharmaceutical composition containing peptide H-Glu-Asp-Arg-OH once a day, intramuscularly, in the dose of 10.0 μg in 1 ml of sterile 0.9% NaCl solution for 10 days. Main group patients with mild consequences of cranial trauma received the pharmaceutical composition containing peptide H-Glu-Asp-Arg-OH once a day, intramuscularly, in the dose of 1.0 μg in 1.0 ml of sterile 0.9% NaCl solution for 10 days.
The efficacy of the pharmaceutical composition containing H-Glu-Asp-Arg-OH peptide was estimated judging by the effect on integral function of the brain, i.e., attention, and on bioelectric activity of the brain using the corrective test and electroencephalogram.
The evaluation of the effect of pharmaceutical composition containing peptide H-Glu-Asp-Arg-OH on bioelectric activity of the brain was performed by means of calculating the alpha index before and after the treatment.

[3] = tested on: male guinea pigs; experiment: Study of chronic toxicity, 6 months; settings: guinea pig, in vivo
Protocol: (§1) The studies of chronic toxicity were conducted for 6 months, basing on the term of recommended clinical administration of the substance, on 84 male guinea pigs with body weight of 270-310 g. Experimental animals received the peptide daily, once a day, intramuscularly, for 6 months in the doses of 1 μg/kg, 0.1 mg/kg, 1 mg/kg in 0.5 ml of sterile 0.9% NaCl solution. Control animals received sterile 0.9% NaCl solution in the same volume and by the same schedule. Traditional methods were used for the evaluation of the following indices of the animals' peripheral blood: the quantity of erythrocytes, hemoglobin, reticulocytes, thrombocytes, leukocytes, leukocyte formula, erythrocyte sedimentation rate (ESR), erythrocyte resistance. Alongside with that, the content of total protein in the serum was identified using Lowry's method, as well as potassium and sodium content using the method of plasma spectrophotometry. After the completion of the experiment pathomorphologic studies of animal brain and spinal cord, spinal cord ganglia, thyroid gland, parathyroid glands, adrenal glands, testis, pituitary body, heart, lungs, aorta, liver, kidneys, urinary bladder, pancreas, stomach, small intestine, large intestine, thymus, spleen, lymph nodes and bone marrow were performed.

[4] = tested on: rats with heavy compression cranial trauma; experiment: Reparative processes in rat brain cortex after acute heavy cranial trauma (CAAR, rotating rod); type: in vivo, white mongrel rats
Source text: The effect of peptide H-Glu-Asp-Arg-OH on reparative processes in the brain was estimated on the pattern of acute heavy cranial trauma. The dynamics of central nervous system functions restoration were identified by testing motion coordination and muscle tonus of the animals, as well as their ability to learning and reproducing the conditioned reflex habit.
24 white mongrel rats were subjected to heavy compression cranial trauma from a falling leaden bob.
The estimation of the rats' ability to learn and reproduce the habits was performed using the test of conditioned active avoidance reflex (CAAR). Muscle tonus and motion coordination were tested by rotating the rats on a rod with increasing speed and measuring the time of their holding on to the rod.

[5] = tested on: white mongrel male mice; settings: mouse, in vivo
Protocol: The study of acute toxicity was performed on 72 white mongrel male mice with body weight of 20-22 g. The animals were randomly subdivided into 6 equal groups. The substance was administered to the animals once, intramuscularly, in the doses of 1 mg/kg, 2 mg/kg, 3 mg/kg, 4 mg/kg, 5 mg/kg in 0.25 ml of sterile 0.9% NaCl solution. The control animals received 0.9% NaCl solution in the same volume.

[6] = tested on: rat brain cortex in hypoxia; experiment: Free radical oxidation reactions in rat brain cortex in hypoxia; type: in vivo, white mongrel rats
Protocol: The study was performed on 18 white mongrel rats. Peptide H-Glu-Asp-Arg-OH was administered to the animals intraperitoneally, in the dose of 1 μg in 1.0 ml of sterile physiological 0.9% NaCl solution once a day for 10 days. 24 hours after the completion of peptide administration the animals were subjected to hypoxic hypoxia. Hypoxia was modeled in the altitude chamber of flow-ejector type, the atmosphere pressure in the chamber being 0.029 MPa, which corresponds to the altitude of 9000 m above sea level. Compression and decompression rate made 0.005 MPa per minute. Carbon dioxide and moisture absorbent was present in the altitude chamber. The animals were held in the chamber for 3 hours in the conditions of free conduct and under constant observation.
The intensity of peroxide lipid oxidation (POL) was estimated judging by the level of initial POL products, i.e. diene conjugates, and terminal products, i.e. Schiff's bases, playing a significant role in neurons damage. The level of protein peroxidation was estimated by the level of carbonyl derivative amino acids in proteins after interaction with 2,4-dinitrophenylhydrazine.

[7] = tested on: white mongrel male rats; experiment: Study of sub-acute toxicity, 90 days; type: in vivo; settings: long-term administration, doses exceeding the therapeutic one by 100-1000 times
Protocol: The study of sub-acute toxicity was performed on 65 white mongrel male rats with body weight of 160-210 g. […] Morphology and properties of the animals' peripheral blood were studied before the administration of the substance, as well as on the 30th, 60th and 90th day after the beginning of the administration. Upon completion of the experiment biochemical and coagulologic indices of the blood were also evaluated.

[8] = tested on: isolated neurons of Astacus leptodactilus crayfish; experiment: Life span of isolated crayfish neurons; type: cell-based; settings: 10 μg/ml
Protocol: Isolated neurons of Astacus leptodactilus crayfish for the in vitro study of peptide H-Glu-Asp-Arg-OH on their life span were extracted by axotomia, being regarded as a model of cell death by apoptosis.
Stretching receptor neurons of a crayfish closely resemble central neurons of vertebrals by their electrophysiological, biological and structure properties. They generate spikes with nearly constant rate during 10-15 hours. Two symmetrical neurons (control and experimental) extracted from the abdominal segment were placed into 2 ml chambers filled with Harreveld's solution. Neuronal potentials were registered extracellularly on the axons by fastened glass pipette electrodes, then amplified and recorded using H-338 recorder. At the same time the frequency of action potentials was registered using two-channel analog frequency meter and H-339 data recorders. In the beginning of the experiment impulse frequency of experimental and control neurons was set on the level of 10-15 Hz by the stretching of the muscle. After 1 hour of stabile spike generation with constant rate peptide H-Glu-Asp-Arg-OH in the concentration of 10 μg/ml was added into the experimental chamber. The activity of the neurons was constantly recorded before the spontaneous termination of spikes generation. Life span of neurons was compared for each couple. Altogether 10 couples of neurons were used.

[9] = tested on: brain cortex explants; experiment: Development of brain cortex explants (area index); type: cell-based, Wistar rats
Protocol: This study was performed on 32 fragments of brain cortex from Wistar rats with body weight of 150-200 g. Nutritional medium for explants cultivation consisted of 35% Eagle's solution, 25% calf fetal serum, 35% Hank's solution, 5% chicken embryonic extract, with the addition of glucose (0.6%), insulin (0.5 units/ml), penicillin (100 units/ml), glutamine (2 mM). […] Peptide H-Glu-Asp-Arg-OH was added into the medium, reaching ultimate concentration of 1, 10 and 100 ng/ml.
Area index (AI), i.e. the ratio of total explant area together with the growth zone to the initial area of brain cortex fragment served as the criterion of biologic activity. The statistical significance of the difference between the compared mean AI values was evaluated using Student's t-criterion. AI values were expressed in percent, control AI values being considered as 100%.

[10] = tested on: male guinea pigs; settings: guinea pig, in vivo
Protocol: as §1

[11] = 10 μg/kg intramuscularly daily for 10 days, 30th day
[12] = 1 μg intraperitoneally once a day for 10 days, then hypoxia

## N=C(N)NCCC[C@H](NC(=O)[C@H](CC(=O)O)NC(=O)[C@@H](N)CCC(=O)O)C(=O)O [peptide H-Glu-Asp-Arg-OH, glutamyl-aspartyl-arginine] (H-Glu-Asp-Arg-OH)
[1]; [11]
  alterations in nerve cells and outgrowths of upper spinal cord segments: less pronounced
  neuronal cell cytoplasm, electronic microscopy: signs of restoration in the neuronal cells cytoplasm
[1]; 10 μg/kg intramuscularly daily for 10 days, 30th day, luminous microscopy, control showed much more heavy and ischemic alterations
  type of neuronal alterations in the spinal cord at the injury spot: mainly “primarily irritated” cells
[1]; animals with spinal cord trauma
  effect on spinal cord neurons regeneration: stimulating effect on spinal cord neurons regeneration
[2]; before treatment 12.6 ± 1.3
  Number of mistakes (corrective test): 6.4 ± 1.1
[2]; before treatment 35.7 ± 4.6
  Alpha index (EEG): 47.9 ± 3.1
[2]; before treatment 1519.1 ± 141.7
  Number of registered signs (corrective test): 2429.6 ± 105.3
[3]
  pathologic alterations in the organism (general status, blood indices, organ morphology, cardiovascular, respiratory, liver and kidney functions): no pathologic alterations
[4]; 48 hours after the trauma, 10 μg/kg intramuscularly
  time of holding on to the rod relative to the control (rotating rod test): more than 2 times
[4]; 96 hours after the trauma, 10 μg/kg intramuscularly, CAAR test
  number of animals capable of learning relative to the control: 2 times
[4]; by the 14th day after the trauma
  indices of the animals' learning ability: close to normal values
[4]; in 30 days, 10 μg/kg intramuscularly
  indices of learning ability: higher than in the control
[5]
  toxic reactions: does not cause toxic reactions
[6]; [12]
  Diene conjugates: 28.57 ± 1.84 nmole/g of tissue
  Level of proteins peroxidation: 4.68 ± 0.07 μmole/mg of protein
  Schiff's bases: 255.4 ± 26.8 conv. units/g of tissue
[6]; hypoxia, vs control
  change in Schiff's bases content: tendency towards a decrease
  change in the level of diene conjugates: statistically significant decrease
  protein peroxidation: inhibited protein peroxidation
[7]
  side effects, subacute toxicity: absence of any side effects
[8]; control 11.9 hours
  Life span of isolated crayfish neurons: 13.7 h and 13.7 ± 0.2 h
[8]; vs control
  prolongation of the life span of isolated neurons: 15%
[9]; 10 ng/ml, 3rd day of cultivation, statistically significant
  Area index (AI) growth as compared to the control: 37%
[9]; after 7 days of cultivating, same concentrations
  neurites stimulation of cortex explants: same effects of neurites stimulation
[10]
  changes in blood morphology and biochemical indices: no statistically significant changes
  side effects, chronic toxicity: absence of any side effects
